Here are results for 9 molecules from PubChem BioAssay (NCI).

Structures are written as SMILES.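 Briefly, cells in 96-well plates were exposed to five compound concentrations for 48 h, and endpoints were estimated by linear interpolation. Here, GI50 denotes the concentration required for 50% inhibition of growth. At the TGI there is no net growth.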

Some test systems named below: SNB-19 CNS; NCI-H226 lung; SF-268 CNS; 786-0 renal; NCI-H23 lung; MDA-MB-231 breast; DU-145 prostate; M14 melanoma; HT29 colon; RPMI-8226 leukemia.
What all share (assay): NCI tumour cell line growth inhibition, 48 h

Turning to `COc1cc(-c2ccc3cc(OC)c(OC)c(OC)c3c2)cc(OC)c1OC`, the GI50 is 75.1 µM in the experiment on SNB-19 CNS; greater than 100 µM in the experiment with NCI-H226 lung; 24 µM in the experiment on SF-268 CNS; 20.9 µM in the experiment with 786-0 renal; greater than 100 µM in the experiment with NCI-H23 lung; 8.91 µM with MDA-MB-231 breast. Besides, the figures for the GI50 with DU-145 prostate and with M14 melanoma were greater than 100 µM and 9.52 µM, respectively. Also, the TGI in the experiment on SNB-19 CNS, in the experiment on NCI-H226 lung, with SF-268 CNS, in the experiment with 786-0 renal, in the experiment on NCI-H23 lung and in the experiment on MDA-MB-231 breast was greater than 100 µM each time. The TGI in the experiment with DU-145 prostate and in the experiment with M14 melanoma was greater than 100 µM in each case.

For the molecule `O=C(CCCSc1nc(-c2ccccc2)cc(-c2ccccc2)n1)NO`, the GI50 is 2.46 µM in the experiment with HT29 colon; 2.67 µM with SNB-19 CNS; 1.19 µM in the experiment on NCI-H226 lung; 0.808 µM in the experiment with RPMI-8226 leukemia; 2.03 µM with SF-268 CNS; 0.585 µM with 786-0 renal. Also, the GI50 with NCI-H23 lung was 2 µM; in the experiment with MDA-MB-231 breast, 1.99 µM; in the experiment on DU-145 prostate, 1.83 µM; with M14 melanoma, 0.927 µM. Moreover, the TGI with HT29 colon was determined as 12.2 µM; in the experiment with SNB-19 CNS, 13.8 µM; with NCI-H226 lung it was 9.28 µM; in the experiment with RPMI-8226 leukemia, 9.38 µM; in the experiment with SF-268 CNS it was 5.76 µM; with 786-0 renal, 4.34 µM. For the same molecule, the TGI with NCI-H23 lung amounted to 6.11 µM; in the experiment on MDA-MB-231 breast, 7.72 µM; in the experiment on DU-145 prostate, 11.4 µM; in the experiment with M14 melanoma, 5.29 µM.

Consider `N#CC(C#N)=C/C=C(\Sc1nc2ccccc2s1)c1ccc(Cl)cc1`, for which the GI50 in the experiment on HT29 colon is 3.27 µM; in the experiment on SNB-19 CNS, 8.12 µM; in the experiment on NCI-H226 lung, 7.73 µM; with SF-268 CNS, 14.6 µM; with 786-0 renal it was 3.43 µM; with NCI-H23 lung it was 3.56 µM. Moreover, the GI50 in the experiment on MDA-MB-231 breast was 5.87 µM; with DU-145 prostate, 3.98 µM; with M14 melanoma it was 3.19 µM. For the same molecule, the TGI in the experiment with HT29 colon is greater than 31.7 µM; with SNB-19 CNS it was greater than 41.2 µM; in the experiment with NCI-H226 lung, 22.8 µM; in the experiment on SF-268 CNS, 33 µM; with 786-0 renal, 12 µM; with NCI-H23 lung, 13.2 µM. For the same molecule, the TGI was determined as 22.3 µM with MDA-MB-231 breast, 17.1 µM with DU-145 prostate and 10.5 µM in the experiment with M14 melanoma.

Regarding `NC(=O)C(=Cn1c(=S)[nH]c2ccc([N+](=O)[O-])cc21)C(N)=O`, the TGI in the experiment with HT29 colon, with SNB-19 CNS, with NCI-H226 lung, in the experiment on SF-268 CNS, in the experiment with 786-0 renal and with NCI-H23 lung was greater than 100 µM each time. The TGI in the experiment on MDA-MB-231 breast, in the experiment with DU-145 prostate and in the experiment on M14 melanoma was greater than 100 µM each time.

As for `COc1ccc(-c2cn[nH]c2-c2cc(OC)c(OC)c(OC)c2)cc1`, the GI50 with HT29 colon was 0.0258 µM; in the experiment with SNB-19 CNS, 0.0631 µM; in the experiment on NCI-H226 lung it was 0.111 µM; with RPMI-8226 leukemia, 0.0429 µM; in the experiment on SF-268 CNS it was 0.0795 µM; with 786-0 renal, 0.0656 µM. Moreover, the GI50 in the experiment with NCI-H23 lung was 0.044 µM; in the experiment on MDA-MB-231 breast, 0.055 µM; with DU-145 prostate it was 0.0392 µM. Besides, the TGI in the experiment with HT29 colon is 0.336 µM; with SNB-19 CNS it was greater than 74.9 µM; with NCI-H226 lung, 20.6 µM; in the experiment with RPMI-8226 leukemia it was 5.16 µM; in the experiment on SF-268 CNS, 31.5 µM; with 786-0 renal, 7.76 µM. In addition, the TGI in the experiment on NCI-H23 lung was found to be 30.2 µM; in the experiment on MDA-MB-231 breast, 33.1 µM; in the experiment with DU-145 prostate it was 2.67 µM.

Consider `C[C@]12CCC3c4ccc(O)cc4CCC3C1CC[C@@]2(O)CNC(=O)/C=C/c1ccc(O)c(O)c1` (some centres not stated), for which the GI50 in the experiment with HT29 colon was 4.83 µM; with SNB-19 CNS, 10.6 µM; in the experiment with NCI-H226 lung it was 15.4 µM; with RPMI-8226 leukemia, 8.56 µM; in the experiment on SF-268 CNS it was 9.45 µM; in the experiment with 786-0 renal it was 11.4 µM. Moreover, the values for the GI50 in the experiment with MDA-MB-231 breast, in the experiment with DU-145 prostate and in the experiment with M14 melanoma were 3.58 µM, 3.29 µM and 10.1 µM, respectively. In addition, the TGI in the experiment on HT29 colon is 19.1 µM; in the experiment with SNB-19 CNS, 23.8 µM; with NCI-H226 lung, 33.1 µM; in the experiment on RPMI-8226 leukemia it was 50.7 µM; in the experiment with SF-268 CNS, greater than 100 µM; in the experiment on 786-0 renal, 24.9 µM. The TGI in the experiment with MDA-MB-231 breast was found to be 16.4 µM; in the experiment on DU-145 prostate it was 14.8 µM; in the experiment on M14 melanoma, 22.5 µM.

Turning to `CC(C)=CCC(O)C1=CC(=O)c2c(O)ccc(O)c2C1=O` (configuration not stated), the TGI was 5.17 µM with HT29 colon; 7.78 µM in the experiment with SNB-19 CNS; 2.3 µM in the experiment on NCI-H226 lung; 6.09 µM with SF-268 CNS; 1.5 µM with 786-0 renal; 2.66 µM with NCI-H23 lung. The TGI was 4.71 µM with MDA-MB-231 breast, 2.5 µM in the experiment on DU-145 prostate and 2.52 µM in the experiment with M14 melanoma.

Turning to `CC1SC(c2ccc(F)cc2)N(NC(=O)C(O)c2ccccc2)C1=O` (configuration not stated), the GI50 in the experiment with HT29 colon, in the experiment with SNB-19 CNS, with NCI-H226 lung, with RPMI-8226 leukemia, in the experiment with SF-268 CNS and in the experiment on 786-0 renal was greater than 100 µM throughout. Also, the GI50 with MDA-MB-231 breast, with DU-145 prostate and in the experiment with M14 melanoma was greater than 100 µM in each case. For the same molecule, the TGI in the experiment with HT29 colon, in the experiment on SNB-19 CNS, in the experiment with NCI-H226 lung, in the experiment on RPMI-8226 leukemia, in the experiment on SF-268 CNS and in the experiment with 786-0 renal was greater than 100 µM in each case. Besides, the TGI in the experiment with MDA-MB-231 breast, with DU-145 prostate and with M14 melanoma was greater than 100 µM throughout.

On to `O=C(Oc1ccc(Cl)cc1)c1ccccc1Nc1ccnc(C(F)(F)F)c1`, for which the GI50 in the experiment with NCI-H226 lung is 2.94 µM; in the experiment on RPMI-8226 leukemia, 2.87 µM; in the experiment on SF-268 CNS, 4.32 µM; in the experiment with 786-0 renal it was 2.71 µM; in the experiment on NCI-H23 lung, 2.82 µM; with MDA-MB-231 breast, 1.78 µM. The GI50 in the experiment on DU-145 prostate is 18.7 µM; in the experiment on M14 melanoma it was 2.12 µM. Besides, the TGI in the experiment on NCI-H226 lung is 16.8 µM; in the experiment with RPMI-8226 leukemia, 8.28 µM; with SF-268 CNS, 17.4 µM; in the experiment on 786-0 renal, 9.75 µM; in the experiment on NCI-H23 lung, 8.55 µM; in the experiment on MDA-MB-231 breast, 7.04 µM. In addition, the figures for the TGI in the experiment with DU-145 prostate and in the experiment with M14 melanoma were 39.8 µM and 4.53 µM, respectively.
